Measured values taken from ChEMBL document CHEMBL6120948, “Design, Synthesis, and Biological Evaluation of Lysine-Stapled Peptide Inhibitors of p53-MDM2/MDMX Interactions with Potent Antitumor Activity In Vivo” (J Med Chem, 2024).

What was measured:
[1] = system: HCT-116; assay: Induction of apoptosis in human HCT-116 cells at 50 uM incubated for 48 hrs by Annexin V-FITC/PI staining based flow cytometry relative to control; format: functional
[2] = system: A549; assay: Antiproliferative activity against human A549 cells expressing wild-type p53 incubated for 72 hrs by MTT assay; format: functional, cell-based; conditions: A549, 72 h
[3] = system: HCT-116; assay: Antiproliferative activity against human HCT-116 cells expressing wild-type p53 incubated for 72 hrs by MTT assay; format: functional, cell-based; conditions: HCT-116, 72 h
[4] = Antiproliferative activity against human SJSA-1 cells expressing wild-type p53 incubated for 72 hrs by MTT assay; format: functional, cell-based; conditions: SJSA-1, 72 h
[5] = system: ZR-75-1; assay: Antiproliferative activity against human ZR-75-1 cells expressing wild-type p53 incubated for 72 hrs by MTT assay; format: functional, cell-based; conditions: ZR-75-1, 72 h
[6] = system: HCT-116; assay: Induction of cell cycle arrest in human HCT-116 cells assessed as accumulation at G2 phase at 20 uM incubated for 24 hrs by PI staining based flow cytometry (reference value: 17.5 %); format: functional
[7] = system: A-375; assay: Antiproliferative activity against human A-375 cells expressing wild-type p53 incubated for 72 hrs by MTT assay; format: functional, cell-based; conditions: A-375, 72 h
[8] = Stability of compound in 50 percent human serum assessed as half life measured for 24 hrs by HPLC analysis; format: ADME, cell-free; conditions: 50% human serum
[9] = system: HeLa; assay: Antiproliferative activity against human HeLa cells expressing wild-type p53 incubated for 72 hrs by MTT assay; format: functional, cell-based
[10] = system: HCT-116; assay: Induction of apoptosis in human HCT-116 cells at 100 uM incubated for 48 hrs by Annexin V-FITC/PI staining based flow cytometry relative to control; format: functional
[11] = system: MCF7; assay: Antiproliferative activity against human MCF7 cells expressing wild-type p53 incubated for 72 hrs by MTT assay; format: functional, cell-based; conditions: MCF7, 72 h
[12] = Antiproliferative activity against HEK293T cells incubated for 72 hrs by MTT assay; format: toxicity, cell-based, HEK-293T; conditions: human
[13] = system: HCT-116; assay: Induction of cell cycle arrest in human HCT-116 cells assessed as accumulation at S phase at 20 uM incubated for 24 hrs by PI staining based flow cytometry (reference value: 29.4 %); format: functional
[14] = system: HCT-116; assay: Induction of cell cycle arrest in human HCT-116 cells assessed as accumulation at G2 phase at 10 uM incubated for 24 hrs by PI staining based flow cytometry (reference value: 17.5 %); format: functional
[15] = Induction of alpha-helical conformation in phosphate buffer at pH 7 at 100 uM by CD analysis; format: physicochemical; conditions: pH 7, 100 µM
[16] = system: HCT-116; assay: Induction of cell cycle arrest in human HCT-116 cells assessed as accumulation at G2 phase at 5 uM incubated for 24 hrs by PI staining based flow cytometry (reference value: 17.5 %); format: functional
[17] = system: HCT-116; assay: Induction of cell cycle arrest in human HCT-116 cells assessed as accumulation at G1 phase at 10 uM incubated for 24 hrs by PI staining based flow cytometry (reference value: 50.7 %); format: functional
[18] = system: HCT-116; assay: Induction of cell cycle arrest in human HCT-116 cells assessed as accumulation at S phase at 5 uM incubated for 24 hrs by PI staining based flow cytometry (reference value: 29.4 %); format: functional
[19] = system: HepG2; assay: Antiproliferative activity against human HepG2 cells expressing wild-type p53 incubated for 72 hrs by MTT assay; format: functional, cell-based; conditions: HepG2, 72 h
[20] = system: HCT-116; assay: Induction of cell cycle arrest in human HCT-116 cells assessed as accumulation at G1 phase at 20 uM incubated for 24 hrs by PI staining based flow cytometry (reference value: 50.7 %); format: functional
[21] = system: HCT-116; assay: Induction of apoptosis in human HCT-116 cells at 25 uM incubated for 48 hrs by Annexin V-FITC/PI staining based flow cytometry relative to control; format: functional
[22] = Antiproliferative activity against human U-87 MG cells expressing wild-type p53 incubated for 72 hrs by MTT assay; format: functional, cell-based, U-87MG ATCC
[23] = system: HCT-116; assay: Induction of cell cycle arrest in human HCT-116 cells assessed as accumulation at G1 phase at 5 uM incubated for 24 hrs by PI staining based flow cytometry (reference value: 50.7 %); format: functional
[24] = system: HCT-116; assay: Induction of cell cycle arrest in human HCT-116 cells assessed as accumulation at S phase at 10 uM incubated for 24 hrs by PI staining based flow cytometry (reference value: 29.4 %); format: functional
[25] = Toxicity in BALB/c nude mouse xenografted with human HCT-116 cells assessed as change in weight of spleen at 5 to 10 mg/kg, iv treated for 14 days on every 48 hrs; format: organism-based; conditions: in vivo, 336 h, dose 5-10 mg/kg, time 14 day
[26] = Toxicity in BALB/c nude mouse xenografted with human HCT-116 cells assessed as histopathological change in lungs at 5 to 10 mg/kg, iv treated for 14 days on every 48 hrs by H and E staining based analysis; format: organism-based; conditions: in vivo, 336 h, dose 5-10 mg/kg, time 14 day
[27] = system: HCT-116; assay: Induction of cell cycle arrest in human HCT-116 cells assessed as accumulation at G1 phase at 20 uM incubated for 24 hrs by PI staining based flow cytometry (reference value: 48.8 %); format: functional
[28] = system: HCT-116; assay: Induction of cell cycle arrest in human HCT-116 cells assessed as accumulation at S phase at 20 uM incubated for 24 hrs by PI staining based flow cytometry (reference value: 31.8 %); format: functional
[29] = Toxicity in BALB/c nude mouse xenografted with human HCT-116 cells assessed as histopathological change in kidneys at 5 to 10 mg/kg, iv treated for 14 days on every 48 hrs by H and E staining based analysis; format: organism-based; conditions: in vivo, 336 h, dose 5-10 mg/kg, time 14 day
[30] = Toxicity in BALB/c nude mouse xenografted with human HCT-116 cells assessed as change in weight of kidneys at 5 to 10 mg/kg, iv treated for 14 days on every 48 hrs; format: organism-based; conditions: in vivo, 336 h, dose 5-10 mg/kg, time 14 day
[31] = system: HCT-116; assay: Induction of cell cycle arrest in human HCT-116 cells assessed as accumulation at G2 phase at 20 uM incubated for 24 hrs by PI staining based flow cytometry (reference value: 17.1 %); format: functional
[32] = system: HCT-116; assay: Induction of cell cycle arrest in human HCT-116 cells assessed as accumulation at G1 phase at 10 uM incubated for 24 hrs by PI staining based flow cytometry (reference value: 48.8 %); format: functional
[33] = system: HCT-116; assay: Induction of cell cycle arrest in human HCT-116 cells assessed as accumulation at G2 phase at 10 uM incubated for 24 hrs by PI staining based flow cytometry (reference value: 17.1 %); format: functional
[34] = Toxicity in BALB/c nude mouse xenografted with human HCT-116 cells assessed as change in body weight at 5 to 10 mg/kg, iv treated for 14 days on every 48 hrs; format: organism-based; conditions: in vivo, 336 h, dose 5-10 mg/kg, time 14 day
[35] = Toxicity in BALB/c nude mouse xenografted with human HCT-116 cells assessed as histopathological change in liver at 5 to 10 mg/kg, iv treated for 14 days on every 48 hrs by H and E staining based analysis; format: organism-based; conditions: in vivo, 336 h, dose 5-10 mg/kg, time 14 day
[36] = Toxicity in BALB/c nude mouse xenografted with human HCT-116 cells assessed as histopathological change in heart at 5 to 10 mg/kg, iv treated for 14 days on every 48 hrs by H and E staining based analysis; format: organism-based; conditions: in vivo, 336 h, dose 5-10 mg/kg, time 14 day
[37] = system: HCT-116; assay: Induction of cell cycle arrest in human HCT-116 cells assessed as accumulation at G1 phase at 5 uM incubated for 24 hrs by PI staining based flow cytometry (reference value: 48.8 %); format: functional
[38] = Toxicity in BALB/c nude mouse xenografted with human HCT-116 cells assessed as change in weight of liver at 5 to 10 mg/kg, iv treated for 14 days on every 48 hrs; format: organism-based; conditions: in vivo, 336 h, dose 5-10 mg/kg, time 14 day
[39] = Toxicity in BALB/c nude mouse xenografted with human HCT-116 cells assessed as change in weight of heart at 5 to 10 mg/kg, iv treated for 14 days on every 48 hrs; format: organism-based; conditions: in vivo, 336 h, dose 5-10 mg/kg, time 14 day
[40] = Toxicity in BALB/c nude mouse xenografted with human HCT-116 cells assessed as change in weight of lungs at 5 to 10 mg/kg, iv treated for 14 days on every 48 hrs; format: organism-based; conditions: in vivo, 336 h, dose 5-10 mg/kg, time 14 day
[41] = system: HCT-116; assay: Induction of cell cycle arrest in human HCT-116 cells assessed as accumulation at S phase at 5 uM incubated for 24 hrs by PI staining based flow cytometry (reference value: 31.8 %); format: functional
[42] = system: HCT-116; assay: Antitumor activity against human HCT-116 cells xenografted in BALB/c nude mouse at 5 mg/kg, iv treated for 14 days on every 48 hrs relative to control; format: functional; conditions: HCT-116, 336 h, time 14 day, read-out: TGI
[43] = Toxicity in BALB/c nude mouse xenografted with human HCT-116 cells assessed as histopathological change in spleen at 5 to 10 mg/kg, iv treated for 14 days on every 48 hrs by H and E staining based analysis; format: organism-based; conditions: in vivo, 336 h, dose 5-10 mg/kg, time 14 day
[44] = system: HCT-116; assay: Induction of cell cycle arrest in human HCT-116 cells assessed as accumulation at S phase at 10 uM incubated for 24 hrs by PI staining based flow cytometry (reference value: 31.8 %); format: functional
[45] = system: HCT-116; assay: Induction of cell cycle arrest in human HCT-116 cells assessed as accumulation at G2 phase at 5 uM incubated for 24 hrs by PI staining based flow cytometry (reference value: 17.1 %); format: functional
[46] = system: HCT-116; assay: Antitumor activity against human HCT-116 cells xenografted in BALB/c nude mouse at 10 mg/kg, iv treated for 14 days on every 48 hrs relative to control; format: functional; conditions: HCT-116, 336 h, time 14 day, read-out: TGI

CSCC[C@H](NC(=O)[C@H](CC(C)C)NC(=O)[C@H](CCC(N)=O)NC(=O)[C@@H]1CCCCNCc2ccc(cc2)CNCCCC[C@H](NC(=O)[C@H](Cc2ccccc2)NC(=O)[C@@H](NC(=O)[C@H](CC(C)C)NC(C)=O)[C@@H](C)O)C(=O)N[C@@H](CCC(=O)O)C(=O)N[C@@H](Cc2ccc(O)cc2)C(=O)N[C@@H](Cc2c[nH]c3ccccc23)C(=O)N1)C(=O)N[C@@H](CCC(N)=O)C(=O)N[C@@H](C)C(=O)N[C@@H](C)C(N)=O
Activity [1]: 56.51%
IC50 [2]: 6.4 µM
IC50 [3]: 14.6 µM
IC50 [4]: > 160 µM
IC50 [5]: 7.2 µM
Activity [6]: 32.7%
IC50 [7]: > 160 µM
half-life [8]: 3 h
IC50 [9]: 91.8 µM
Activity [10]: 70.13%
IC50 [11]: 25.3 µM
IC50 at 72 h [12]: > 160 µM
Activity [13]: 32.3%
Activity [14]: 29%
Activity [15]: 11%
Activity [16]: 23.9%
Activity [17]: 33.9%
Activity [18]: 40.5%
IC50 [19]: > 160 µM
Activity [20]: 34.1%
Activity [21]: 55.66%
IC50 [22]: 7.2 µM
Activity [23]: 33.8%
Activity [24]: 36.2%

CC(=O)N[C@@H](CC(C)C)C(=O)N[C@H](C(=O)N[C@@H](Cc1ccccc1)C(=O)N[C@H]1CCCCNCc2cccc(c2)CNCCCC[C@@H](C(=O)N[C@@H](CCC(N)=O)C(=O)N[C@@H](CC(C)C)C(=O)N[C@H](C(=O)N[C@@H](CO)C(=O)N[C@@H](C)C(=O)N[C@@H](C)C(N)=O)[C@@H](C)O)NC(=O)[C@H](Cc2c[nH]c3ccccc23)NC(=O)[C@H](Cc2ccc(O)cc2)NC(=O)[C@H](Cc2c[nH]cn2)NC1=O)[C@@H](C)O
Activity [25]: Non-toxic
Activity [26]: Non-toxic
Activity [27]: 37.4%
Activity [1]: 94.4%
Activity [28]: 30.5%
IC50 [2]: 27.4 µM
IC50 [3]: 5.8 µM
IC50 [4]: > 160 µM
IC50 [5]: 2.6 µM
IC50 [7]: 49.2 µM
Activity [29]: Non-toxic
Activity [30]: Non-toxic
half-life [8]: 12 h
IC50 [9]: 45.9 µM
Activity [10]: 93.14%
IC50 [11]: 2.99 µM
IC50 at 72 h [12]: > 160 µM
Activity [31]: 31.2%
Activity [32]: 38.1%
Activity [33]: 28%
Activity [34]: Non-toxic
Activity [15]: 11%
Activity [35]: Non-toxic
Activity [36]: Non-toxic
IC50 [19]: > 160 µM
Activity [37]: 35.6%
Activity [38]: Non-toxic
Activity [39]: Non-toxic
Activity [40]: Non-toxic
Activity [41]: 37.7%
Activity [21]: 35.22%
IC50 [22]: 3.7 µM
inhibition in vivo at 5 mg/kg [42]: 13%
Activity [43]: Non-toxic
Activity [44]: 33%
Activity [45]: 25.3%
inhibition in vivo at 10 mg/kg [46]: 30%
